Data from PubChem BioAssay AID2060503 (Molecular Pharmacology Branch, DTP, NCI, 2025).

Test system: 817829-284-R-J1-PDC complex spheroids, viability
Experiment: Anticancer human tumor 817829-284-R-J1-PDC patient-derived colon adenocarcinoma cell line growth inhibition [GQUAD]
Conditions: for IC50: curve of first compound; for viability, T/C: stronger effect = lower value
Method in brief: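 Multi-cell-type spheroids of tumor cells with HUVEC and mesenchymal stem cells, treated with drug combinations. Concentrations descend in half-log steps from near clinical Cmax, or from 10 microM where Cmax is unknown; viability read-out.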
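Also: spheroids exposed to agents for 7 days before readout.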
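For viability, T/C in this document: percent viability relative to DMSO vehicle control taken as 100%.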

Compound: C=CCn1c(=O)c2cnc(Nc3ccc(N4CCN(C)CC4)cc3)nc2n1-c1cccc(C(C)(C)O)n1 + CN(C)c1ccc(Nc2c3ccc(NC(=O)CCN4CCCC4)cc3nc3cc(NC(=O)CCN4CCCC4)ccc23)cc1
- IC50 (second compound 0.0316 µM): 240 nM
- IC50 (second compound 0.1 µM): 220 nM
- IC50 (second compound 0.316 µM): 263 nM
- IC50 (second compound 1 µM): 231 nM
- IC50 (second compound 3.16 µM): 214 nM
- IC50 (second compound 10 µM): 190 nM
- viability, T/C (second compound 0.0316 µM, first compound 0.0316 µM): 99.2%
- viability, T/C (second compound 0.0316 µM, first compound 0.1 µM): 106%
- viability, T/C (second compound 0.0316 µM, first compound 0.316 µM): 33.4%
- viability, T/C (second compound 0.0316 µM, first compound 1 µM): 9.73%
- viability, T/C (second compound 0.0316 µM, first compound 3.16 µM): 6.22%
- viability, T/C (second compound 0.0316 µM, first compound 10 µM): 6.74%
- viability, T/C (second compound 0.1 µM, first compound 0.0316 µM): 88.5%
- viability, T/C (second compound 0.1 µM, first compound 0.1 µM): 101%
- viability, T/C (second compound 0.1 µM, first compound 0.316 µM): 29.5%
- viability, T/C (second compound 0.1 µM, first compound 1 µM): 9.11%
- viability, T/C (second compound 0.1 µM, first compound 3.16 µM): 7.3%
- viability, T/C (second compound 0.1 µM, first compound 10 µM): 5.57%
- viability, T/C (second compound 0.316 µM, first compound 0.0316 µM): 102%
- viability, T/C (second compound 0.316 µM, first compound 0.1 µM): 109%
- viability, T/C (second compound 0.316 µM, first compound 0.316 µM): 39.2%
- viability, T/C (second compound 0.316 µM, first compound 1 µM): 9.34%
- viability, T/C (second compound 0.316 µM, first compound 3.16 µM): 7.03%
- viability, T/C (second compound 0.316 µM, first compound 10 µM): 5.88%
- viability, T/C (second compound 1 µM, first compound 0.0316 µM): 99.8%
- viability, T/C (second compound 1 µM, first compound 0.1 µM): 102%
- viability, T/C (second compound 1 µM, first compound 0.316 µM): 30.9%
- viability, T/C (second compound 1 µM, first compound 1 µM): 9.37%
- viability, T/C (second compound 1 µM, first compound 3.16 µM): 6.93%
- viability, T/C (second compound 1 µM, first compound 10 µM): 6.42%
- viability, T/C (second compound 3.16 µM, first compound 0.0316 µM): 89.3%
- viability, T/C (second compound 3.16 µM, first compound 0.1 µM): 102%
- viability, T/C (second compound 3.16 µM, first compound 0.316 µM): 26.4%
- viability, T/C (second compound 3.16 µM, first compound 1 µM): 10.9%
- viability, T/C (second compound 3.16 µM, first compound 3.16 µM): 7.22%
- viability, T/C (second compound 3.16 µM, first compound 10 µM): 5.95%
- viability, T/C (second compound 10 µM, first compound 0.0316 µM): 104%
- viability, T/C (second compound 10 µM, first compound 0.1 µM): 82.4%
- viability, T/C (second compound 10 µM, first compound 0.316 µM): 24%
- viability, T/C (second compound 10 µM, first compound 1 µM): 11.2%
- viability, T/C (second compound 10 µM, first compound 3.16 µM): 7.11%
- viability, T/C (second compound 10 µM, first compound 10 µM): 2.4%
